According to ChEMBL document CHEMBL1240441, “New pyrazoline derivatives and their antidepressant activity” (Eur J Med Chem, 2010):

Experiments:
Mus musculus [1] = experiment: Antidepressant-like activity in Swiss albino mouse assessed as effect on swimming time at 100 mg/kg, ip after 24 hrs measured for 5 mins by modified forced swimming test (reference value: 95 +/- 9.7 sec); type: functional; conditions: route intraperitoneal
Mus musculus [2] = experiment: Neurotoxicity in Swiss albino mouse assessed as effect on motor coordination at 100 mg/kg, ip by rotarod test; type: toxicity, organism-based; set-up: dose 100 mg/kg, route intraperitoneal; conditions: in vivo
Mus musculus [3] = experiment: Antidepressant-like activity in Swiss albino mouse assessed as effect on immobility time at 100 mg/kg, ip after 24 hrs measured for 5 mins by modified forced swimming test (reference value: 102.2 +/- 7.5 sec); type: functional; conditions: route intraperitoneal
Mus musculus [4] = experiment: Antidepressant-like activity in Swiss albino mouse assessed as effect on climbing time at 100 mg/kg, ip after 24 hrs measured for 5 mins by modified forced swimming test (reference value: 56.8 +/- 2.6 sec); type: functional; conditions: route intraperitoneal
Mus musculus [5] = experiment: Antidepressant-like activity in Swiss albino mouse assessed as reduction of immobility time at 100 mg/kg, ip measured last 4 mins for 6 mins test by tail suspension test (reference value: 116.4 +/- 4.6 sec); type: functional; conditions: route intraperitoneal
Mus musculus [6] = experiment: Antidepressant-like activity in Swiss albino mouse assessed as reduction of immobility time at 10 mg/kg, ip measured last 4 mins for 6 mins test by tail suspension test (reference value: 116.4 +/- 4.6 sec); type: functional; conditions: route intraperitoneal
Mus musculus [7] = experiment: Antidepressant-like activity in Swiss albino mouse assessed as effect on swimming time at 10 mg/kg, ip after 24 hrs measured for 5 mins by modified forced swimming test (reference value: 95 +/- 9.7 sec); type: functional; conditions: route intraperitoneal
Mus musculus [8] = experiment: Antidepressant-like activity in Swiss albino mouse assessed as effect on immobility time at 10 mg/kg, ip after 24 hrs measured for 5 mins by modified forced swimming test (reference value: 102.2 +/- 7.5 sec); type: functional; conditions: route intraperitoneal
Mus musculus [9] = experiment: Antidepressant-like activity in Swiss albino mouse assessed as effect on climbing time at 10 mg/kg, ip after 24 hrs measured for 5 mins by modified forced swimming test (reference value: 56.8 +/- 2.6 sec); type: functional; conditions: route intraperitoneal

| SMILES | Time (Mus musculus [1]) | Activity (Mus musculus [2]) | Time (Mus musculus [3]) | Time (Mus musculus [4]) | Time (Mus musculus [5]) | Time (Mus musculus [6]) | Time (Mus musculus [7]) | Time (Mus musculus [8]) | Time (Mus musculus [9]) |
| --- | --- | --- | --- | --- | --- | --- | --- | --- | --- |
| Nn1c(CCc2ccc(O)cc2)nnc1SCC(=O)N1N=C(c2cccs2)CC1c1ccc2c(c1)OCO2 (centres undefined) | 144.7 s | Non-toxic | 69.9 s | 54.1 s | 96.1 s | – | – | – | – |
| Nn1c(CCc2ccc(O)cc2)nnc1SCC(=O)N1N=C(c2cccs2)CC1c1ccccc1 (centres undefined) | 191.8 s | Non-toxic | 33.3 s | 43.3 s | 69 s | – | – | – | – |
| Nn1c(CCc2ccc(O)cc2)nnc1SCC(=O)N1N=C(c2cccs2)CC1c1ccc(F)cc1 (centres undefined) | 153.3 s | Non-toxic | 52.5 s | 48.8 s | 78.8 s | – | – | – | – |
| Nn1c(CCc2ccc(O)cc2)nnc1SCC(=O)N1N=C(c2cccs2)CC1c1ccc(Cl)cc1 (centres undefined) | 193.7 s | Non-toxic | 40.5 s | 45 s | 72.1 s | – | – | – | – |
| Cc1ccc(C2CC(c3cccs3)=NN2C(=O)CSc2nnc(CCc3ccc(O)cc3)n2N)cc1 (centres undefined) | 147.8 s | Non-toxic | 58.4 s | 54.4 s | 85.9 s | – | – | – | – |
| CN(C)c1ccc(C2CC(c3cccs3)=NN2C(=O)CSc2nnc(CCc3ccc(O)cc3)n2N)cc1 (centres undefined) | 140 s | Non-toxic | 66.2 s | 53.5 s | 93.5 s | – | – | – | – |
| CNCCC(Oc1ccc(C(F)(F)F)cc1)c1ccccc1 (centres undefined) [FLUOXETINE] | – | – | – | – | – | 90.6 s | 148.5 s | 67.6 s | 47.8 s |
